The results in this text go back to ChEMBL document CHEMBL5463728, “Data for DCP probe BAY-6096” (2023).

Data set [1] concerns the target 5-hydroxytryptamine receptor 2A (Homo sapiens) (UniProt P28223). The note with it: Compound concentration 10.0 uM.
Data set [2] addresses Alpha-1B adrenergic receptor (Homo sapiens, UniProt P35368). Briefly: Adrenoceptor reporter cell assay (ADRA1B). It counts as functional.
The target of data set [3] is Insulin receptor (Homo sapiens) (UniProt P06213). The note with it: Rattus norvegicus; Compound concentration 10.0 uM.
In data set [4] the target is Sodium-dependent noradrenaline transporter (Homo sapiens) (UniProt P23975). The note with it: Compound concentration 10.0 uM.
Chain of Sodium-dependent noradrenaline transporter (Homo sapiens) (P23975 whole entry): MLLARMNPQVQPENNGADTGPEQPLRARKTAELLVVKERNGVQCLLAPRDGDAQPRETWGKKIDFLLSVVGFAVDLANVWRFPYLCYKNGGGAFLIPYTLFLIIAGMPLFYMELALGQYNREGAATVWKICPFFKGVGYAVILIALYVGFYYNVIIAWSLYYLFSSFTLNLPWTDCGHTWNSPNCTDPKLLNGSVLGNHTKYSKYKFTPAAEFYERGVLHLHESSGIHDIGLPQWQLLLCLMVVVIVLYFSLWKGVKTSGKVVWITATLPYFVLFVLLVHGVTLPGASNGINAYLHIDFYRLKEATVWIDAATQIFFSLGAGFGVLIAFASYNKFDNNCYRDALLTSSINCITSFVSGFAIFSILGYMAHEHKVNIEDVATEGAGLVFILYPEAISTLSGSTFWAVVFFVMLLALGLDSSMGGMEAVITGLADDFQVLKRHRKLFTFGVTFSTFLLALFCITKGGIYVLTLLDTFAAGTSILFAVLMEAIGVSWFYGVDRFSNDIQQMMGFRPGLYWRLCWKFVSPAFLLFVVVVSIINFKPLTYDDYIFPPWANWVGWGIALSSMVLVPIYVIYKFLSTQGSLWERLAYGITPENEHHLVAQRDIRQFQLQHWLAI
For data set [5], the target named is Gamma-aminobutyric acid type B receptor subunit 1 (Homo sapiens) (UniProt Q9UBS5). The note with it: Rattus norvegicus; Compound concentration 10.0 uM.
Data set [6] addresses Glutamate NMDA receptor (Rattus norvegicus) (UniProt P35439+Q00959+Q00960+Q00961+Q62645+Q8VHN2+Q9R1M7). The note with it: Compound concentration 10.0 uM.
Data set [7] deals with Monoamine oxidase A (MAO-A) (Homo sapiens, UniProt P21397). Briefly: Inhibition of Monoamine Oxidase MAO-A at compound concentration of 10.0 uM in the Eurofins-Panlabs enzyme assay (Eurofins_assay_140010). Also noted: substrate with concentration 50 uM Kynuramine, incubation time 60 min, incubation temperature 37 C. The note with it: recombinant human MAO-A expressed in insect Hi5 cells, probe Kynuramine (50 uM), compound concentration 10 uM.

The next data set addresses D(2) dopamine receptor (Homo sapiens, UniProt P14416). The note with it: Compound concentration 10.0 uM.
The target in data set [8] is cGMP-specific 3',5'-cyclic phosphodiesterase (Homo sapiens) (UniProt O76074). The note with it: Compound concentration 10.0 uM.
The target of data set [9] is Cannabinoid receptor 2 (Homo sapiens) (UniProt P34972). The note with it: Compound concentration 10.0 uM.
Data set [10] concerns the target T1, Muscarinic acetylcholine receptor M4 (Homo sapiens) (UniProt P08173).
T1 sequence (whole entry): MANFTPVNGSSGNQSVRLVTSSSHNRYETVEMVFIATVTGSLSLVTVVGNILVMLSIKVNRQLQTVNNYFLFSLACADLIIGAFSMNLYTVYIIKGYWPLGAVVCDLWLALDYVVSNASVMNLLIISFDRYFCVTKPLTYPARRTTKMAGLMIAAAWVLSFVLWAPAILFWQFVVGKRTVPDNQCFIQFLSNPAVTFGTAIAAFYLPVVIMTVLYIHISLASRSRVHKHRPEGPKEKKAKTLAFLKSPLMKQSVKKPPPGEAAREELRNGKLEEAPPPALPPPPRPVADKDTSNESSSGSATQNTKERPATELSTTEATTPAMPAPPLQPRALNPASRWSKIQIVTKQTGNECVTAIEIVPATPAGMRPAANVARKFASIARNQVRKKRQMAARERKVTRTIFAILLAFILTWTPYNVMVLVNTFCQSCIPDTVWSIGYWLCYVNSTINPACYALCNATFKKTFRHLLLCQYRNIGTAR
The note with it: Compound concentration 10.0 uM.

The target of data set [11] is Histamine H2 receptor (Homo sapiens) (UniProt P25021). The note with it: Compound concentration 10.0 uM.
For data set [12], the target named is Nitric oxide synthase, inducible (Homo sapiens) (UniProt P35228). Briefly: Inhibition of Nitric Oxide Synthase, Inducible (iNOS) at compound concentration of 10.0 uM in the Eurofins-Panlabs enzyme assay (Eurofins_assay_199010). The arrangement: substrate with concentration. The note with it: Mus musculus; Compound concentration 10.0 uM.
Chain of Nitric oxide synthase, inducible (Homo sapiens) (P35228 whole entry): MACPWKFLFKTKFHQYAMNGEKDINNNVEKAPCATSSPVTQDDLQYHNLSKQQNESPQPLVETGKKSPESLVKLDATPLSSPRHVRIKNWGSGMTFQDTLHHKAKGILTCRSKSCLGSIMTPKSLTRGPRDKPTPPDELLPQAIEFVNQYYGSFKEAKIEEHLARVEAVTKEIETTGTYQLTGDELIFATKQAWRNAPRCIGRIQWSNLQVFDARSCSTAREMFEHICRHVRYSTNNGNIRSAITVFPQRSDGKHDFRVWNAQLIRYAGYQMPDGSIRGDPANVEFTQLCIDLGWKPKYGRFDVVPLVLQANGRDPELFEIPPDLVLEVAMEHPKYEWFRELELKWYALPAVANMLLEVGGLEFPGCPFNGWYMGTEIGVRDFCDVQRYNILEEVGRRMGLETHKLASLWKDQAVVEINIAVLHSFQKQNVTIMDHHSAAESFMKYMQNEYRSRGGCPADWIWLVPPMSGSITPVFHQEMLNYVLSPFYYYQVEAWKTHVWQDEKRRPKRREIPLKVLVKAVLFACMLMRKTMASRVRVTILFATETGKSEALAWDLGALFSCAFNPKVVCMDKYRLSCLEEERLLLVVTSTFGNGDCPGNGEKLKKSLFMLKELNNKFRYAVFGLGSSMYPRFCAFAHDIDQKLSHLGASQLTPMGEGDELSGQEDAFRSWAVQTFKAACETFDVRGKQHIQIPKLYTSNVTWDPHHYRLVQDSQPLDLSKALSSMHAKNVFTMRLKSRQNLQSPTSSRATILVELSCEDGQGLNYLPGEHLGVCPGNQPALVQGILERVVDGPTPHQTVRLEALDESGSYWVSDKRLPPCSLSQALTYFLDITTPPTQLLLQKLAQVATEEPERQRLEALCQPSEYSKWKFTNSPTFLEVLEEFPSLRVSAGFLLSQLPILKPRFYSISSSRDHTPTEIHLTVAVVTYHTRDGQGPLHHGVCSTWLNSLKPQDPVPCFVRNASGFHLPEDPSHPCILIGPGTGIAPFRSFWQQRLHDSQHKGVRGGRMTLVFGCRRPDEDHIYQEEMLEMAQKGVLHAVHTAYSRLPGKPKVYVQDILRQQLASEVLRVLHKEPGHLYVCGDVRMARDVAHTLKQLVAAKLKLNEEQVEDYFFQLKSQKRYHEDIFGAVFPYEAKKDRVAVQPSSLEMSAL
Data set [13] has as its target Kappa-type opioid receptor (Homo sapiens) (UniProt P41145). The note with it: Compound concentration 10.0 uM.
The species named for the next data set is Oryctolagus cuniculus. The note with it: Compound concentration 10.0 uM.
The target in data set [14] is Muscarinic acetylcholine receptor M1 (Homo sapiens) (UniProt P11229). The note with it: Compound concentration 10.0 uM.
The species named for another data set is Sus scrofa. Briefly: Inhibition of ATPase, Na+/K+, Heart at compound concentration of 10.0 uM in the Eurofins-Panlabs enzyme assay (Eurofins_assay_107710). Also noted: substrate with concentration. The note with it: Compound concentration 10.0 uM.
For data set [15], the target named is GABA-A receptor; anion channel (Rattus norvegicus) (UniProt O09028+P15431+P18506+P18508+P19969+P20236+P23574+P23576+P28471+P28473+P30191+P62813+P63079+P63138+Q91ZM7+Q9ES14). The note with it: Compound concentration 10.0 uM.
In data set [16] the target is Sodium-dependent dopamine transporter (Homo sapiens) (UniProt Q01959). The note with it: Compound concentration 10.0 uM.
Chain of Sodium-dependent dopamine transporter (Homo sapiens) (Q01959 whole entry): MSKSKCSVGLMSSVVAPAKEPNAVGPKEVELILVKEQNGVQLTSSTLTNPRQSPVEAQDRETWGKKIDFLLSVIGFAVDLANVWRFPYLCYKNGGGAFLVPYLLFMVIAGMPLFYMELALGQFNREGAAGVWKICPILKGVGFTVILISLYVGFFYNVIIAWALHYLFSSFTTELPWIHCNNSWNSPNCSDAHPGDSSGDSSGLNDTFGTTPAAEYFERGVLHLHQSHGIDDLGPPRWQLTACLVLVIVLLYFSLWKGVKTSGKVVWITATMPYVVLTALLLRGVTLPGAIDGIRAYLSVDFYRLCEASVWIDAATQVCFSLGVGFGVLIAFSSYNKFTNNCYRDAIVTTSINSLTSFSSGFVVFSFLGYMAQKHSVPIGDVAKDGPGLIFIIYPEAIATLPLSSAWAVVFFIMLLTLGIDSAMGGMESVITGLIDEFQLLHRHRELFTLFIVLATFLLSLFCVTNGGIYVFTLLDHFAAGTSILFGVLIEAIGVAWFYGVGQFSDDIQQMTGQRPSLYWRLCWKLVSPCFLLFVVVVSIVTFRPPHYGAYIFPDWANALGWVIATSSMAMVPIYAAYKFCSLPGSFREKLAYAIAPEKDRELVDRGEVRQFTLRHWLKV
Data set [17] addresses Prostaglandin G/H synthase 1 (Homo sapiens) (UniProt P23219). Briefly: Inhibition of Cyclooxygenase COX-1 at compound concentration of 10.0 uM in the Eurofins-Panlabs enzyme assay (Eurofins_assay_116020). The note with it: Compound concentration 10.0 uM.
Data set [18] has as its target T2, Alpha-2B adrenergic receptor (Homo sapiens, UniProt P18089).
T2 sequence (P18089 whole entry): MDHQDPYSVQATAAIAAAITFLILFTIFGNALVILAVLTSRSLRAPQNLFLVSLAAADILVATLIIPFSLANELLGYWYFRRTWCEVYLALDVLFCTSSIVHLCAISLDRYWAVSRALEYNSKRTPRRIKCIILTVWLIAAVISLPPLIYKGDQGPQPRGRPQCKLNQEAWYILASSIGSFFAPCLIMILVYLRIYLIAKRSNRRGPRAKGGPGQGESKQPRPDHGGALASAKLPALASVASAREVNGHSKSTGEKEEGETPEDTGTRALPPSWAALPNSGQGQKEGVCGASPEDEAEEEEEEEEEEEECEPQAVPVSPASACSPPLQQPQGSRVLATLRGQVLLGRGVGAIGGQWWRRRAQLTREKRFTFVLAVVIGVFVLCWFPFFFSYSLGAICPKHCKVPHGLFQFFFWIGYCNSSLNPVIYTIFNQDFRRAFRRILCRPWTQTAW
Description: GPCRScan assay: inhibition of Alpha2B. The arrangement: radioligand conc. used [nm] 1.5 – 2.0, parental cells HEKT.

The target of data set [19] is T2, Alpha-2B adrenergic receptor. Description: Adrenoceptor Reporter Cell Assay (ADRA2B). Format: functional.
In data set [20] the target is 5-hydroxytryptamine receptor 1A (Homo sapiens, UniProt P08908). Briefly: GPCRScan assay: inhibition of 5-HT1A. The arrangement: radioligand conc. used [nm] 0.5 – 1.0, parental cells stable CHO.
Chain of 5-hydroxytryptamine receptor 1A (P08908 whole entry): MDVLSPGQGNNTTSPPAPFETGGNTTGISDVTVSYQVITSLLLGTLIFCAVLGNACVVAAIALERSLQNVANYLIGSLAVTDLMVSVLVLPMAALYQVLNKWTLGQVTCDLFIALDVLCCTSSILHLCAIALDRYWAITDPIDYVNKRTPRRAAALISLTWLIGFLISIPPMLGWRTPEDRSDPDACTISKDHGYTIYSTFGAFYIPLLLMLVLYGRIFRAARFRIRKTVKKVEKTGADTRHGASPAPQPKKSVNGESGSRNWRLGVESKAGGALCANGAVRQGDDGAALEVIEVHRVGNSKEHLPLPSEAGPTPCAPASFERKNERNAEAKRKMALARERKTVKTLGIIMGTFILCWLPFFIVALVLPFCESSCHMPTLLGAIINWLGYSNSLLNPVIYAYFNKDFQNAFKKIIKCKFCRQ
Data set [21] concerns the target Sodium-dependent dopamine transporter (Homo sapiens) (UniProt Q01959). The note with it: Compound concentration 10.0 uM. This is another data set of the same source.

Chain of 5-hydroxytryptamine receptor 2A (Homo sapiens) (P28223 whole entry): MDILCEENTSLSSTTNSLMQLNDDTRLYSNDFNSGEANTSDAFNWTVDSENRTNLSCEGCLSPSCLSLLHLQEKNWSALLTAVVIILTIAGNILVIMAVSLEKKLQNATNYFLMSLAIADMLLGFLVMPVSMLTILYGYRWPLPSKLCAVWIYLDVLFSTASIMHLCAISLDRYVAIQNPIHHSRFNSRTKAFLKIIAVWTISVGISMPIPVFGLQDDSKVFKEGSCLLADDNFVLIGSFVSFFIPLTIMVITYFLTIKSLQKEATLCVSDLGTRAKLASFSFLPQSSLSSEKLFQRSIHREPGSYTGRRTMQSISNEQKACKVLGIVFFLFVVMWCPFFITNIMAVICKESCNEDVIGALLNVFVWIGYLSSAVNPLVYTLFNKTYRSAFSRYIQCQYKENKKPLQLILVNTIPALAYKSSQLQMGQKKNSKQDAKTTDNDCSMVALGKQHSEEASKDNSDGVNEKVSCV
Chain of D(2) dopamine receptor (P14416 whole entry): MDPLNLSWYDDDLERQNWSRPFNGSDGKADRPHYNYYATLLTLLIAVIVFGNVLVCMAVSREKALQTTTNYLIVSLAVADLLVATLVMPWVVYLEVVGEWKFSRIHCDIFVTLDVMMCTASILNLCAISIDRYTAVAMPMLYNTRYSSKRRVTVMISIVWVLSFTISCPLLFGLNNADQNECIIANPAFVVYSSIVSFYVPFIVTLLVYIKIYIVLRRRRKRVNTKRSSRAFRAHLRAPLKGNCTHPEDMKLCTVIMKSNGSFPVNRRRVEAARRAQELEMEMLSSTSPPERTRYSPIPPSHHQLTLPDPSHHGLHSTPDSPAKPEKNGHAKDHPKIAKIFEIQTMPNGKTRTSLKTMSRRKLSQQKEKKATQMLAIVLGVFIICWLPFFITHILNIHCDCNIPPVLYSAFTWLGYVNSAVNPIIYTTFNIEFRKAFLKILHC
Chain of Prostaglandin G/H synthase 1 (Homo sapiens) (P23219 whole entry): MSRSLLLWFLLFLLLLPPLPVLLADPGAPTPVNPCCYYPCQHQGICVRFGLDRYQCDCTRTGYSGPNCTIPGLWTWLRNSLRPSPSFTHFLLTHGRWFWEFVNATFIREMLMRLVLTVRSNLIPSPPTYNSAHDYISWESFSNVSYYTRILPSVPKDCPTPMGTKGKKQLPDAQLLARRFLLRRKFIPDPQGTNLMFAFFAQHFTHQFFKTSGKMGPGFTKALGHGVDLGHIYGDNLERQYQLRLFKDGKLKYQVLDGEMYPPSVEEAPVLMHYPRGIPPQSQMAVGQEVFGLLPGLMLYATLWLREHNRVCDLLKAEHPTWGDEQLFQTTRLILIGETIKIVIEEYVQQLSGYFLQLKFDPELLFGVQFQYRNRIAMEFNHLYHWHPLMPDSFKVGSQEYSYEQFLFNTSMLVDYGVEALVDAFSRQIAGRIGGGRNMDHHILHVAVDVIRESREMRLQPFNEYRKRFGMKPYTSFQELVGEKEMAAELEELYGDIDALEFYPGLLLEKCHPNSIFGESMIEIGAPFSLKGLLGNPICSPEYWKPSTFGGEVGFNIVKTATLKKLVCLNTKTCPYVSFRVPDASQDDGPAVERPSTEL
Chain of Kappa-type opioid receptor (Homo sapiens) (P41145 whole entry): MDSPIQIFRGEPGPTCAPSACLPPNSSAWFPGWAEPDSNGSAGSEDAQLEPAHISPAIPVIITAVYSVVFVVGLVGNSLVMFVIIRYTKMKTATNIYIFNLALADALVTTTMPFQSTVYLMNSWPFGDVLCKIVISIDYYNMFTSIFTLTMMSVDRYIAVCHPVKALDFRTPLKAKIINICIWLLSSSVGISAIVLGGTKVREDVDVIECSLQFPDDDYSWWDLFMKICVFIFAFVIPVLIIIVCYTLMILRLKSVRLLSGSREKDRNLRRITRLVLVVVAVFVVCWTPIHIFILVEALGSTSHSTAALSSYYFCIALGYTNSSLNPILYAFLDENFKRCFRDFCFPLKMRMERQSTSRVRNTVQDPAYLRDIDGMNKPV

In the case of `CNc1cc[n+](CCNC(=O)c2ccn3c(-c4c(C)noc4C)cnc3c2)cc1`, the inhibition (commonly the relative decrease from the control value, in per cent) is 1% in data set [1]; -3.4% in data set [3]; 2.7% in data set [4]; 2.1% in data set [5]; 4% in data set [6]; -1.6% at D(2) dopamine receptor. The inhibition in [8] was 3.6%; in data set [9], -3.8%; in data set [10], 3.5%; in data set [11] it was -0.4%; in data set [12], 6.3%; in data set [13], 0.5%. The inhibition in the data set filed under Oryctolagus cuniculus was -7.5%; in data set [14], -4.1%; in the data set filed under Sus scrofa it was -2.1%; in [15], -3.7%; in [16], 20.3%; in [17], -6.3%. In data set [2], the IC50 (as a rule, the concentration at which inhibition is half-maximal) is > 10 µM (not active). In [7], the inhibition at 60 min, 10 µM was -13.8% (not active).
Regarding `Cc1noc(C)c1-c1cnc2cc(C(=O)NCCC[n+]3ccc(N(C)C)cc3)ccn12`, the Ki is 2760 nM in data set [18] (read-out: Ki), 2510 nM in data set [18] (read-out: pKi (converted)), 212 nM in data set [20] (read-out: Ki) and 182 nM in [20] (read-out: pKi (converted)). For the same compound, the IC50 in data set [19] is on record as 7.1 µM (not active). For the same compound, the inhibition in data set [21] was -3.28%.
